# Measurements as given in PubChem BioAssay AID1918948 (Molecular Pharmacology Branch, DTP, NCI, 2023).
# Tested on: K-562 leukemia growth, % test/control
# Experiment: Anticancer human tumor K-562 cell line growth inhibition;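 also: spheroids exposed to compounds for 7 days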;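 as to viability, T/C: 100% = DMSO vehicle wells and lower values mean fewer viable cells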
# Details: spheroids with HUVEC and MSC; for IC50: curve of first compound; for viability, T/C: stronger effect = lower value
# In short: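 Drug combinations with the LSD1 inhibitor iadademstat tested on tumor cells co-cultured as spheroids with endothelial cells and mesenchymal stem cells. Concentrations descended in half-log increments from clinical Cmax or 10 microM.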
# [1] = second compound 0.1 µM, first compound 0.00949 µM
# [2] = second compound 0.1 µM, first compound 0.03 µM
# [3] = second compound 0.1 µM, first compound 0.0949 µM
# [4] = second compound 0.1 µM, first compound 0.3 µM
# [5] = second compound 0.316 µM, first compound 0.00949 µM
# [6] = second compound 0.316 µM, first compound 0.03 µM
# [7] = second compound 0.316 µM, first compound 0.0949 µM
# [8] = second compound 0.316 µM, first compound 0.3 µM
# [9] = second compound 1 µM, first compound 0.00949 µM
# [10] = second compound 1 µM, first compound 0.03 µM
# [11] = second compound 1 µM, first compound 0.0949 µM
# [12] = second compound 1 µM, first compound 0.3 µM
# [13] = second compound 3.16 µM, first compound 0.00949 µM
# [14] = second compound 3.16 µM, first compound 0.03 µM
# [15] = second compound 3.16 µM, first compound 0.0949 µM
# [16] = second compound 3.16 µM, first compound 0.3 µM
# [17] = second compound 10 µM, first compound 0.00949 µM
# [18] = second compound 10 µM, first compound 0.03 µM
# [19] = second compound 10 µM, first compound 0.0949 µM
# [20] = second compound 10 µM, first compound 0.3 µM
smiles,measurement,setting,value
CC1COCCN1c1cc(C2(S(C)(=N)=O)CC2)nc(-c2ccnc3[nH]ccc23)n1 (stereo not given) + NC1CC1c1ccc(-c2cccc(O)c2)cc1,IC50,second compound 0.1 µM,1590 nM
same,IC50,second compound 0.316 µM,1580 nM
same,IC50,second compound 1 µM,1500 nM
same,IC50,second compound 3.16 µM,1490 nM
same,IC50,second compound 10 µM,1350 nM
same,"viability, T/C","second compound 0.1 µM, first compound 0.0316 µM",115%
same,"viability, T/C","second compound 0.1 µM, first compound 0.1 µM",107%
same,"viability, T/C","second compound 0.1 µM, first compound 0.316 µM",108%
same,"viability, T/C","second compound 0.1 µM, first compound 1 µM",77.3%
same,"viability, T/C","second compound 0.1 µM, first compound 3.16 µM",9.88%
same,"viability, T/C","second compound 0.1 µM, first compound 10 µM",2.95%
same,"viability, T/C","second compound 0.316 µM, first compound 0.0316 µM",100%
same,"viability, T/C","second compound 0.316 µM, first compound 0.1 µM",107%
same,"viability, T/C","second compound 0.316 µM, first compound 0.316 µM",101%
same,"viability, T/C","second compound 0.316 µM, first compound 1 µM",77.9%
same,"viability, T/C","second compound 0.316 µM, first compound 3.16 µM",7.2%
same,"viability, T/C","second compound 0.316 µM, first compound 10 µM",2.06%
same,"viability, T/C","second compound 1 µM, first compound 0.0316 µM",105%
same,"viability, T/C","second compound 1 µM, first compound 0.1 µM",104%
same,"viability, T/C","second compound 1 µM, first compound 0.316 µM",103%
same,"viability, T/C","second compound 1 µM, first compound 1 µM",74%
same,"viability, T/C","second compound 1 µM, first compound 3.16 µM",6.19%
same,"viability, T/C","second compound 1 µM, first compound 10 µM",1.92%
same,"viability, T/C","second compound 3.16 µM, first compound 0.0316 µM",109%
same,"viability, T/C","second compound 3.16 µM, first compound 0.1 µM",105%
same,"viability, T/C","second compound 3.16 µM, first compound 0.316 µM",99.2%
same,"viability, T/C","second compound 3.16 µM, first compound 1 µM",72.8%
same,"viability, T/C","second compound 3.16 µM, first compound 3.16 µM",6.87%
same,"viability, T/C","second compound 3.16 µM, first compound 10 µM",2.7%
same,"viability, T/C","second compound 10 µM, first compound 0.0316 µM",105%
same,"viability, T/C","second compound 10 µM, first compound 0.1 µM",105%
same,"viability, T/C","second compound 10 µM, first compound 0.316 µM",106%
same,"viability, T/C","second compound 10 µM, first compound 1 µM",65.7%
same,"viability, T/C","second compound 10 µM, first compound 3.16 µM",5.01%
same,"viability, T/C","second compound 10 µM, first compound 10 µM",2.52%
CCN(c1cc(-c2ccc(CN3CCOCC3)cc2)cc(C(=O)NCc2c(C)cc(C)[nH]c2=O)c1C)C1CCOCC1 + NC1CC1c1ccc(-c2cccc(O)c2)cc1,IC50,second compound 0.1 µM,2040 nM
same,IC50,second compound 0.316 µM,1940 nM
same,IC50,second compound 1 µM,1790 nM
same,IC50,second compound 3.16 µM,1650 nM
same,IC50,second compound 10 µM,904 nM
same,"viability, T/C",[1],116%
same,"viability, T/C",[2],117%
same,"viability, T/C",[3],116%
same,"viability, T/C",[4],110%
same,"viability, T/C","second compound 0.1 µM, first compound 0.949 µM",82.9%
same,"viability, T/C","second compound 0.1 µM, first compound 3 µM",33.5%
same,"viability, T/C",[5],115%
same,"viability, T/C",[6],117%
same,"viability, T/C",[7],115%
same,"viability, T/C",[8],108%
same,"viability, T/C","second compound 0.316 µM, first compound 0.949 µM",80.5%
same,"viability, T/C","second compound 0.316 µM, first compound 3 µM",31.6%
same,"viability, T/C",[9],108%
same,"viability, T/C",[10],111%
same,"viability, T/C",[11],118%
same,"viability, T/C",[12],110%
same,"viability, T/C","second compound 1 µM, first compound 0.949 µM",75.9%
same,"viability, T/C","second compound 1 µM, first compound 3 µM",28.9%
same,"viability, T/C",[13],109%
same,"viability, T/C",[14],111%
same,"viability, T/C",[15],114%
same,"viability, T/C",[16],103%
same,"viability, T/C","second compound 3.16 µM, first compound 0.949 µM",70.8%
same,"viability, T/C","second compound 3.16 µM, first compound 3 µM",27.7%
same,"viability, T/C",[17],105%
same,"viability, T/C",[18],109%
same,"viability, T/C",[19],109%
same,"viability, T/C",[20],92.2%
same,"viability, T/C","second compound 10 µM, first compound 0.949 µM",48.5%
same,"viability, T/C","second compound 10 µM, first compound 3 µM",20.1%
Nc1ncn(C2CC(O)C(CO)S2)c(=O)n1 (stereo not given) + NC1CC1c1ccc(-c2cccc(O)c2)cc1,IC50,second compound 0.1 µM,91.1 nM
same,IC50,second compound 0.316 µM,84.4 nM
same,IC50,second compound 1 µM,79 nM
same,IC50,second compound 3.16 µM,76.8 nM
same,IC50,second compound 10 µM,55.8 nM
same,"viability, T/C","second compound 0.1 µM, first compound 0.000949 µM",110%
same,"viability, T/C","second compound 0.1 µM, first compound 0.003 µM",108%
same,"viability, T/C",[1],107%
same,"viability, T/C",[2],93.2%
same,"viability, T/C",[3],48.4%
same,"viability, T/C",[4],17.1%
same,"viability, T/C","second compound 0.316 µM, first compound 0.000949 µM",103%
same,"viability, T/C","second compound 0.316 µM, first compound 0.003 µM",104%
same,"viability, T/C",[5],103%
same,"viability, T/C",[6],90.3%
same,"viability, T/C",[7],45.5%
same,"viability, T/C",[8],16.3%
same,"viability, T/C","second compound 1 µM, first compound 0.000949 µM",102%
same,"viability, T/C","second compound 1 µM, first compound 0.003 µM",103%
same,"viability, T/C",[9],104%
same,"viability, T/C",[10],88%
same,"viability, T/C",[11],42.9%
same,"viability, T/C",[12],15.6%
same,"viability, T/C","second compound 3.16 µM, first compound 0.000949 µM",98.5%
same,"viability, T/C","second compound 3.16 µM, first compound 0.003 µM",105%
same,"viability, T/C",[13],102%
same,"viability, T/C",[14],85.6%
same,"viability, T/C",[15],42.1%
same,"viability, T/C",[16],16.3%
same,"viability, T/C","second compound 10 µM, first compound 0.000949 µM",98.8%
same,"viability, T/C","second compound 10 µM, first compound 0.003 µM",101%
same,"viability, T/C",[17],98%
same,"viability, T/C",[18],72.6%
same,"viability, T/C",[19],30.5%
same,"viability, T/C",[20],12.3%
